Patent publication US7390837B2, “Germicidal compositions containing phenylmalonaldehyde-type compounds, or mixtures of phenylmalonaldehyde-type compounds and phthalaldehydes, and methods of using such compositions for disinfection or sterilization” (Ethicon, Inc., priority 2004, dated 2008)

Legend:
[1] = tested on: Mycobacterium terrae bacteria; test: bacterial suspension test; assay type: cell-based; settings: for Germicidal Efficacy: summary Table 14
Method: The bacterial suspension test that was employed is described in Section VII.
The solutions were prepared by adding the appropriate amounts of the germicidal compounds to an aqueous solution. Unless otherwise mentioned all concentrations reported herein are expressed in (w/v) %. The pH of the solution was not adjusted. The tests were conducted at a temperature of about 20° C. (room temperature). The results are presented in terms of log reductions/mL. It is understood that these examples, as well as the other examples herein, are to be construed as merely illustrative, and not limiting.
In this test method, 9 mL of the germicide to be tested is placed in a tube, put into a water bath and allowed to come to the desired temperature. One mL of the test organism, including at least 7 logs/mL of Mycobacterium terrae bacteria, is added to the 9 mL of the germicide to be tested. […] It will be appreciated by those skilled in the art that other concentrations may be utilized by proper dilution and accounting.
At appropriate time intervals, 1 mL aliquots of the germicide-cell suspension were removed and added directly into 9 mL of a 1% glycine solution (neutralizer) and mixed thoroughly to neutralize the germicide in the transferred suspension. The glycine solution was prepared from solid glycine, which is available from VWR Scientific Products, among others. The above-identified 10 mL neutralized solution was then poured through a membrane filter having an average pore size of 0.45 micrometers. The filter was then rinsed twice with at least 150 mL of the 1% glycine solution per rinse. The filter was then placed on an agar plate and incubated for twenty-one days at 37° C. In the above procedure, if dilution was needed, then the 1 mL germicidal-cell suspension was diluted in 99 mL of a phosphate buffer before addition to the 9 mL of the 1% glycine solution. The phosphate buffer was DiLu-LoK™ Butterfields Phosphate Buffer, available from Hardy Diagnostics, of Santa Maria, Calif.
The surviving colonies are then counted. The data is plotted as S/So vs. time. So is the initial count of the bacteria in the above 10 mL solution which is at least 10^6 bacteria/mL, and S is the surviving bacteria from the above filter on the agar plate. The results of the experiments were presented in terms of log reductions. Log reduction is the difference between log(So) and log(S). As one example, if log(So)=6.2, and if there were 100 survivors, then the log(S)=2, and the log reduction was reported as 4.2.

solubility in water = assay type: physicochemical

Question: What does the source list for O=Cc1ccc(C=O)cc1 [TPA, terephthalaldehyde, reference compound]?
Answer: Log Reductions/mL ([1]; 0.2%, dissolved in 20% isopropanol, 20° C., 5 min): Confluent; Germicidal Efficacy [1]: Poor

Question: For O=Cc1ccccc1C=O [OPA, phthalaldehyde], which “Germicidal Efficacy” value [1] is on record?
Answer: Good

Question: And the solubility in water (solubility in water)?
Answer: about 5 % by weight

Question: With O=CC(c1ccccc1)C(O)S(=O)(=O)[O-].[Na+] (centres unmarked) [1-hydroxy-3-oxo-2-phenyl-propane-1-sulfonic acid, sodium salt] as the compound, how does the “Log Reductions/mL” value ([1]; 0.6%, 20° C., 60 min, sodium salt) read?
Answer: Total Kill

Question: And the “Log Reductions/mL” value ([1]; 2.5%, 20° C., 10 min, sodium salt)?
Answer: total kill

Question: With O=Cc1ccc(Cl)cc1C=O [4-chloro-phthalaldehyde] as the compound, how does the “Log Reductions/mL” value ([1]; 2.7 w/v % in 20% isopropanol, 20° C., 5 min) read?
Answer: Total Kill

Question: For O=CC(C=O)c1ccccc1 [phenyl-propanedial], which “Log Reductions/mL” value ([1]; 0.4%, 20° C., 60 min (Table 5)) is on record?
Answer: Total Kill

Question: What about the “Log Reductions/mL” value ([1]; 0.44%, 20° C., 60 min (Table 15)) of the same compound?
Answer: Total Kill

Question: And the “Log Reductions/mL” value ([1]; 0.66%, 20° C., 15 min (Table 15))?
Answer: Total Kill

Question: And the “Log Reductions/mL” value ([1]; 0.7%, 20° C., 15 min (Table 5))?
Answer: Total Kill

Question: What about the logs killed ([1]; 1% solution, 5 minutes, 20° C.) of the same compound?
Answer: more than 4 logs

Question: What about the “Log Reductions/mL” value ([1]; ~1%, 20° C., 5 min (Table 15)) of the same compound?
Answer: 4.5 log reductions/mL

Question: What about the solubility in water (solubility in water) of the same compound?
Answer: about 1%

Question: Which results are given for O=Cc1ccccc1C(O)S(=O)(=O)[O-].[Na+] (centres unmarked) [(2-formyl-phenyl)-hydroxy-methane sulfonic acid, sodium salt]?
Answer: Log Reductions/mL ([1]; 9.1%, 20° C., 5 min, listed as (2-formyl-phenyl)-hydroxy-methane sulfonate, sodium salt): confluent; Log Reductions/mL ([1]; 9.1%, 20° C., 5 min, listed as H-SULF, sodium salt): Confluent

Question: Which results are given for O=Cc1cccc(C=O)c1 [IPA, isophthalaldehyde, reference compound]?
Answer: Log Reductions/mL ([1]; 0.3%, dissolved in 20% isopropanol, 20° C., 5 min (Table 11)): Confluent; Log Reductions/mL ([1]; 0.3%, dissolved in 20% isopropanol, 20° C., 5 min (Table 11), listed as EPA): confluent; Log Reductions/mL ([1]; 0.3%, dissolved in 20% isopropanol, 20° C., 5 min (Table 15)): Confluent; Germicidal Efficacy [1]: Poor

Question: With O=Cc1ccc(Br)cc1C=O [4-bromo-phthalaldehyde] as the compound, how does the “Log Reductions/mL” value ([1]; 0.1%, 20° C., exposure time 30 minutes) read?
Answer: Total Kill

Question: Which “Log Reductions/mL” value ([1]; Saturated (~2.3% w/v), 5 min, 20° C.) does the source give for 4-pyridinyl-propanedial here?
Answer: 4.0 log reductions/mL

Question: For O=Cc1ccc(F)cc1C=O [4-fluoro-phthalaldehyde], which “Log Reductions/mL” value ([1]; 0.25%, 20° C., exposure time 60 minutes) is on record?
Answer: Total Kill
